Reference: paper PMC8921064 (Archives of Toxicology, 2022)
Values joined by “and” are separate entries in the source; they are usually repeats but may differ in a detail not shown here. Identical values can stand only once.

Key:
[1] = system: human liver microsomes (HLM); assay: Human liver microsomal incubation, metabolite formation quantified by UPLC; details: HLM
Experimental: (§1) The incubation mixtures were prepared and incubated in glass vials to avoid plastic binding of the substrates. The glass vials were capped to prevent substrate loss due to volatility. After preincubation of the incubation mixture at 37 °C for 1 min, the enzymatic reaction was initiated by adding microsomes to the incubation mixture which was subsequently incubated at 37 °C for 20 min. The reaction was terminated by adding 100 µl ice-cold acetonitrile followed by vortexing. After 5 min centrifugation at 5000 rpm (4000 × g), 4 °C, the supernatant was collected for ultraperformance liquid chromatography (UPLC) analysis. […] Therefore, a diisopropylether (DIPE) extraction of the metabolites was performed after the reaction was stopped by the addition of 20 µl 10% HClO4. To this end, the incubation mixture (total volume of 220 µl) was extracted three times with 1 ml DIPE. Each time, the upper organic layer was collected and the DIPE was subsequently evaporated from the combined organic fractions with a gentle stream of nitrogen. The residues were dissolved in 100 µl methanol and analyzed by UPLC.
(§2) The metabolites formed were analyzed and quantified using an Acquity UPLC system equipped with a photodiode array (PDA) detector (Waters, Milford, MA). The metabolites and their parent compound were separated on a reverse phase Acquity UPLC® BEH C18 column ([…], 1.7 µm, Waters, Milford, MA) and detected at wavelengths ranging from 190 to 400 nm. Eluent A was nano-pure water containing 0.1% trifluoroacetic acid (v/v), and eluent B was acetonitrile containing 0.1% trifluoroacetic acid (v/v). The gradient elution started from 90% A and 10% B applied from 0.0 min to 0.5 min, which was changed to 0% A and 100% B from 0.5 to 15.5 min and then kept at 0% A and 100% B from 15.5 min to 18.5 min, changed back to 90% A and 10% B from 18.5 to 18.6 min and then maintained at the starting conditions from 18.6 min until 22 min. The total run time was 22 min using a flow rate of 0.6 ml/min. The temperature of the column was set at 40 °C and that of the autosampler at 10 °C during the UPLC analysis. The injection volume was 3.5 µl. Metabolites were quantified using their peak area at the wavelength specified in Table 1, using calibration curves of available reference compounds. Metabolites were identified by comparing their retention time (RT) and UV spectrum to those of reference chemicals on UPLC. When reference chemicals were not available, metabolite identification by gas chromatography-triple quadrupole mass spectrometry (GC–MS/MS) was performed. The minor metabolites were identified by elution time and mass spectra both on UPLC and GC–MS/MS, and by comparison with available elution and spectral information from the literature.
(§3) The metabolite concentrations in the microsomal incubation mixtures as quantified by UPLC were used to calculate the rate of the enzymatic conversions in pmol/min/mg microsomal protein. The kinetic parameters KM and Vmax were obtained using a nonlinear regression curve fit applying the Michaelis Menten equation in GraphPad Prism 5 (San Diego, USA). To compare the catalytic efficiency of formation of the different metabolites the intrinsic clearance (Clint) was calculated as Vmax divided by KM.

[2] = system: rat liver microsomes (RLM); assay: Rat liver microsomal incubation, metabolite formation quantified by UPLC; details: RLM
Experimental: as §1, §2, §3

[3] = system: Salmonella typhimurium TA100; assay: Reverse mutation assay (Ames test), TA100; details: positive control, 650 µg/plate MMS; mean ± SD of 3 plates
Experimental: (§4) Six concentrations of each compound were tested in triplicate in the absence and presence of 5% (v/v) S9-mix prepared from the livers of Aroclor 1254 treated Sprague–Dawley rats. The S9-mix contained 4 mM NADP, 5.8 mM glucose-6-phosphate, 0.1 M sodium phosphate pH 7.4, 8 mM MgCl2, 33 mM KCl and 5% S9 homogenate. Fresh bacterial cultures were prepared overnight to reach 10^9 cells/ml. The following solutions were pre-incubated in a rotating incubator at 70 rpm and 37 °C, and contained either 0.5 ml S9-mix (in case of S9 presence) or 0.5 ml 0.1 M potassium phosphate pH 7.4 (in case of S9 absence), 0.1 ml of a fresh bacterial culture (10^9 cells/ml) of TA98 or TA100, and 10–100 µg test compound. Top agar was melted and heated to 45 °C. After preincubation, the substrate solutions were added to 3 ml of the molten top agar and mixed by vortexing and the top agar mixture was poured onto a minimal glucose agar plate. After solidification of the top agar, the plates were incubated at 37 °C for 48 h. The number of revertant colonies per plate was automatically counted with the Instem Sorcerer Colony Counter (Staffordshire, UK). In the absence of S9-mix, 2-nitrofluorene (NF) and methylmethanesulfonate (MMS) were tested as positive controls for incubations with TA98 and TA100, respectively. In the presence of S9-mix, 2-aminoanthracene (2AA) was tested as a positive control in both TA98 and TA100. DMSO was tested as a solvent control in both tester strains.

[4] = system: Salmonella typhimurium TA98; assay: Reverse mutation assay (Ames test), TA98; details: positive control, 10 µg/plate NF; mean ± SD of 3 plates
Experimental: as §4, with “and 10–100 µg test compound.” left out

[5] = 0 to 600 μM, 20 min, NM = no metabolism
[6] = substrate 1-N-hexylphenanthrene
[7] = substrate 10-Methyl-9-ethylphenanthrene

SMILES: CCCCCCCCCCCCc1cccc2c1ccc1ccccc12 [1-N-dodecylphenanthrene, 1-n-dodecylphenanthrene]
- Metabolic conversion (metabolites formed) [1, 5]: No metabolic conversion was observed
- Metabolic conversion (metabolites formed) [2, 5]: No metabolic conversion was observed

SMILES: CCCCCCc1cccc2c1ccc1ccccc12 [1-N-hexylphenanthrene, 1-n-Hexylphenanthrene]
- Vmax, formation of 1-Hydroxyhexyl-phenanthrene RT = 8.45 min [1, 6]: 48.3 ± 6.1 pmol/min/mg microsomal protein
- Vmax, formation of 1-Hydroxyhexyl-phenanthrene RT = 8.82 min [1, 6]: 44.2 ± 4.8 pmol/min/mg microsomal protein
- Vmax, formation of 1-Hydroxyhexyl-phenanthrene RT = 8.45 min [2, 6]: 103.4 ± 18.1 pmol/min/mg microsomal protein
- Vmax, formation of 1-Hydroxyhexyl-phenanthrene RT = 8.58 min [2, 6]: 54.8 ± 5.2 pmol/min/mg microsomal protein
- Vmax, formation of 1-Hydroxyhexyl-phenanthrene RT = 8.82 min [2, 6]: 25.6 ± 1.8 pmol/min/mg microsomal protein
- Vmax, formation of 1-Hydroxyhexyl-phenanthrene RT = 9.13 min [2, 6]: 11.7 ± 0.9 pmol/min/mg microsomal protein

SMILES: CCc1ccc2c(ccc3ccccc32)c1 [2-Ethylphenanthrene]
- Vmax, formation of 2-(1-Hydroxyethyl)-phenanthrene RT = 6.21 min ([1]; substrate 2-Ethylphenanthrene): 468.8 ± 50.3 pmol/min/mg microsomal protein
- Vmax, formation of Dihydro-2-ethylphenanthrene-diol RT = 5.16 min ([1]; substrate 2-Ethylphenanthrene): 18.4 ± 3.2 pmol/min/mg microsomal protein
- Vmax, formation of Dihydro-2-ethylphenanthrene-diol RT = 5.29 min ([1]; substrate 2-Ethylphenanthrene): 22.1 ± 3.0 pmol/min/mg microsomal protein
- Vmax, formation of Unknown metabolite RT = 9.38 min ([1]; substrate 2-Ethylphenanthrene): 37.2 ± 6.5 pmol/min/mg microsomal protein
- Vmax, formation of 2-(1-Hydroxyethyl)-phenanthrene RT = 6.21 min ([2]; substrate 2-Ethylphenanthrene): 3149.0 ± 266.1 pmol/min/mg microsomal protein
- Vmax, formation of 2-Ethylphenanthrol RT = 7.57 min ([2]; substrate 2-Ethylphenanthrene): 16.5 ± 3.1 pmol/min/mg microsomal protein
- Vmax, formation of 2-Ethylphenanthrol RT = 7.74 min ([2]; substrate 2-Ethylphenanthrene): 16.6 ± 2.7 pmol/min/mg microsomal protein
- Vmax, formation of 2-Ethylphenanthrol RT = 7.89 min ([2]; substrate 2-Ethylphenanthrene): 11.8 ± 2.4 pmol/min/mg microsomal protein
- Vmax, formation of Dihydro-2-ethylphenanthrene-diol RT = 4.6 min ([2]; substrate 2-Ethylphenanthrene): 33.9 ± 11.8 pmol/min/mg microsomal protein
- Vmax, formation of Dihydro-2-ethylphenanthrene-diol RT = 5.29 min ([2]; substrate 2-Ethylphenanthrene): 42.9 ± 3.5 pmol/min/mg microsomal protein
- Vmax, formation of Unknown metabolite RT = 9.38 min ([2]; substrate 2-Ethylphenanthrene): 238.0 ± 23.9 pmol/min/mg microsomal protein

SMILES: CCc1cc2ccccc2c2ccccc12 [9-Ethylphenanthrene]
- Vmax, formation of 9-(1-Hydroxyethyl)-phenanthrene RT = 6.20 min ([1]; substrate 9-Ethylphenanthrene): 267.7 ± 17.4 pmol/min/mg microsomal protein
- Vmax, formation of 9-(2-Hydroxyethyl)-phenanthrene RT = 6.00 min ([1]; substrate 9-Ethylphenanthrene): 61.4 ± 3.3 pmol/min/mg microsomal protein
- Vmax, formation of 9-Ethylphenanthrol RT = 7.42 min ([1]; substrate 9-Ethylphenanthrene): 12.8 ± 1.1 pmol/min/mg microsomal protein
- Vmax, formation of 9-Ethylphenanthrol RT = 7.58 min ([1]; substrate 9-Ethylphenanthrene): 29.1 ± 2.8 pmol/min/mg microsomal protein
- Vmax, formation of Dihydro-9-ethylphenanthrene-diol RT = 3.81 min ([1]; substrate 9-Ethylphenanthrene): 15.2 ± 0.8 pmol/min/mg microsomal protein
- Vmax, formation of Dihydro-9-ethylphenanthrene-diol RT = 3.88 min ([1]; substrate 9-Ethylphenanthrene): 23.5 ± 1.4 pmol/min/mg microsomal protein
- Vmax, formation of 9-(1-Hydroxyethyl)-phenanthrene RT = 6.20 min ([2]; substrate 9-Ethylphenanthrene): 1206 ± 47.9 pmol/min/mg microsomal protein
- Vmax, formation of 9-(2-Hydroxyethyl)-phenanthrene RT = 6.00 min ([2]; substrate 9-Ethylphenanthrene): 37.0 ± 2.26 pmol/min/mg microsomal protein
- Vmax, formation of 9-Ethylphenanthrol RT = 7.42 min ([2]; substrate 9-Ethylphenanthrene): 29.7 ± 3.1 pmol/min/mg microsomal protein
- Vmax, formation of 9-Ethylphenanthrol RT = 7.58 min ([2]; substrate 9-Ethylphenanthrene): 56.6 ± 1.8 pmol/min/mg microsomal protein
- Vmax, formation of 9-Ethylphenanthrol RT = 7.93 min ([2]; substrate 9-Ethylphenanthrene): 22.8 ± 1.8 pmol/min/mg microsomal protein
- Vmax, formation of Dihydro-9-ethylphenanthrene-diol RT = 3.81 min ([2]; substrate 9-Ethylphenanthrene): 12.0 ± 2.1 pmol/min/mg microsomal protein
- Vmax, formation of Unknown metabolite RT = 9.35 min ([2]; substrate 9-Ethylphenanthrene): 52.7 ± 6.2 pmol/min/mg microsomal protein

SMILES: CCc1c(C)c2ccccc2c2ccccc12 [10-Methyl-9-ethylphenanthrene]
- Vmax, formation of 9-(1-Hydroxyethyl)-10-methylphenanthrene RT = 6.65 min [1, 7]: 187.1 ± 45.2 pmol/min/mg microsomal protein
- Vmax, formation of 9-(2-Hydroxyethyl)-10-methylphenanthrene RT = 6.5 min [1, 7]: 12.9 ± 1.8 pmol/min/mg microsomal protein
- Vmax, formation of 9-Ethyl-10-(1-hydroxymethyl)-phenanthrene RT = 6.90 min [1, 7]: 85.9 ± 17.4 pmol/min/mg microsomal protein
- Vmax, formation of Dihydro-10-methyl-9-ethylphenanthrene-diol RT = 4.29 min [1, 7]: 7.2 ± 1.7 pmol/min/mg microsomal protein
- Vmax, formation of Dihydro-10-methyl-9-ethylphenanthrene-diol RT = 4.34 min [1, 7]: 10.5 ± 2.5 pmol/min/mg microsomal protein
- Vmax, formation of 9-(1-Hydroxyethyl)-10-methylphenanthrene RT = 6.65 min [2, 7]: 630.2 ± 81.4 pmol/min/mg microsomal protein
- Vmax, formation of 9-(2-Hydroxyethyl)-10-methylphenanthrene RT = 6.5 min [2, 7]: 21.0 ± 3.1 pmol/min/mg microsomal protein
- Vmax, formation of 9-Ethyl-10-(1-hydroxymethyl)-phenanthrene RT = 6.90 min [2, 7]: 85.8 ± 11.6 pmol/min/mg microsomal protein
- Vmax, formation of 9-Ethyl-10-methylphenanthrol RT = 7.82 min [2, 7]: 65.6 ± 9.8 pmol/min/mg microsomal protein
- Vmax, formation of 9-Ethyl-10-methylphenanthrol RT = 8.3 min [2, 7]: 29.4 ± 7.7 pmol/min/mg microsomal protein
- Vmax, formation of Dihydro-10-methyl-9-ethylphenanthrene-diol RT = 4.29 min [2, 7]: 6.4 ± 2.7 pmol/min/mg microsomal protein
- Vmax, formation of Dihydro-10-methyl-9-ethylphenanthrene-diol RT = 4.34 min [2, 7]: 8.09 ± 1.6 pmol/min/mg microsomal protein

SMILES: COS(C)(=O)=O [MMS, methylmethanesulfonate, reference compound]
- His + revertant colonies TA100 without S9-mix [3]: 868±70 and 823±58 and 783±46

SMILES: O=[N+]([O-])c1ccc2c(c1)Cc1ccccc1-2 [NF, 2-nitrofluorene, reference compound]
- His + revertant colonies TA98 without S9-mix [4]: 1590±295
